According to US20240390298A1, “CYCLOHEXYL BETA-HYDROXY ALKYL AMINES AND MEDICAL USES THEREOF” (ATROGI AB, priority 2021, published 2024):
Structures can show the parent of a compound that is named as a salt.

How the values were obtained:
L6-myotubes [1] = assay: Measurement of intracellular cAMP levels in differentiated L6 cells (alpha screen cAMP kit), compared to isoproterenol; assay type: cell-based; settings: Rattus norvegicus, L6, 0.25 h, agonist 1×10^−5 M, 15 min, read-out: Biological example 2: intracellular cAMP levels, activity compared to that of isoproterenol
Experimental: (§1) L6-myoblasts were grown in Dulbecco's Modified Eagle's Medium (DMEM) containing 1 g/L glucose supplemented with 10% fetal bovine serum, 2 mM L-Glutamine, 50 U/mL penicillin, 50 μg/mL streptomycin and 10 mM HEPES. Cells were plated at 1×10^5 cells per mL in 24-well plates. After reaching 90% confluence the cells were grown in medium containing 2% FBS for 7 days where upon cells differentiated into myotubes.
Differentiated cells were serum-starved overnight and stimulated with an agonist, final concentration 1×10^−5 M, for 15 min in stimulation buffer (HBSS supplemented with 1% BSA, 5 mM HEPES and 1 mM IBMX, pH 7.4). The medium was aspirated and 100 μL of 95% EtOH was added to each well of the 24-well plate and cells were kept at −20° C. overnight. The EtOH was allowed to evaporate and 500 μL of lysis buffer (1% BSA, 5 mM HEPES and 0.3% Tween-20, pH 7.4) was added to each well. The plate was kept at −80° C. for 30 min and then at −20° C. until the day of detection when the samples were thawed. Intracellular cAMP levels were detected using an alpha screen cAMP kit (6760635D from Perkin Elmer). The activity for each compound is compared to that of isoproterenol.

L6-myotubes [2] = assay: Glucose uptake in differentiated L6-myotubes (3H-2-deoxyglucose), compared to isoproterenol; assay type: cell-based; settings: agonist 1×10^−5 M, 50 nM 3H-2-deoxyglucose; for Emax at 10 µM: read-out: Biological example 1: glucose uptake, activity compared to that of isoproterenol
Experimental: as §1
Differentiated L6-myotubes were serum-starved overnight in medium containing 0.5% fatty-acid free BSA and stimulated with an agonist, with a final concentration of 1×10^−5 M. After 1 h 40 min the cells were washed with warm glucose free medium or PBS twice and another portion of agonist was added to the glucose free medium. After 20 min the cells were exposed to 50 nM ^3H-2-deoxyglucose for 10 min before washed with ice cold glucose free medium or PBS three times and lysed with 0.2 M NaOH, 400 μL/well, for 1 h at 60° C. The cell lysate was mixed with 4 mL scintillation buffer (Emulsifier Safe, Perkin Elmer) and the radioactivity was detected in a β-counter (Tri-Carb 4810TR, Perkin Elmer). The activity for each compound is compared to that of isoproterenol.

Q: `CO[C@H]1CC[C@@H](CCC(C)(C)NC[C@H](O)c2cncc(F)c2)CC1` [Example 24, (R)-1-(5-Fluoropyridin-3-yl)-2-((4-((1s,4R)-4-methoxycyclohexyl)-2-methylbutan-2-yl)amino)ethan-1-ol dihydrochloride] was tested. Which Emax at 10 µM (L6-myotubes [1]) did it give?
A: < 25%

Q: And the “Biological example 1: glucose uptake, activity compared to that of isoproterenol” value (L6-myotubes [2])?
A: + + +

Q: With `O[C@@H](CNC[C@H]1CC[C@@H](OCc2ccccc2)CC1)c1cccc(F)c1` [Example 25, (R)-2-((((1s,4S)-4-(Benzyloxy)cyclohexyl)methyl)amino)-1-(3-fluoro-phenyl)ethan-1-ol] as the molecule, how does the Emax at 10 µM (L6-myotubes [1]) read?
A: < 25%

Q: And the Emax at 10 µM (L6-myotubes [2])?
A: 25 to 50%

Q: What does the source list for `O[C@@H](CNC[C@H]1CC[C@@H](O)CC1)c1cccc(F)c1` [Example 26, (1S,4s)-4-((((R)-2-(3-Fluorophenyl)-2-hydroxyethyl)amino)methyl)-cyclohexan-1-ol]?
A: Emax at 10 µM (L6-myotubes [1]): < 25%; Emax at 10 µM (L6-myotubes [2]): 25 to 50%

Q: For `O[C@@H](CNC[C@H]1CC[C@@H](OCc2ccccc2)CC1)c1cncc(F)c1` [Example 27, (R)-2-((((1s,4S)-4-(Benzyloxy)cyclohexyl)methyl)amino)-1-(5-fluoropyridin-3-yl)ethan-1-ol], which Emax at 10 µM (L6-myotubes [1]) is on record?
A: < 25%

Q: What about the “Biological example 1: glucose uptake, activity compared to that of isoproterenol” value (L6-myotubes [2]) of the same molecule?
A: + + +

Q: With `O[C@@H](CNC[C@H]1CC[C@@H](O)CC1)c1cncc(F)c1` [Example 28, (1S,4s)-4-((((R)-2-(5-Fluoropyridin-3-yl)-2-hydroxyethyl)amino)-methyl)cyclohexan-1-ol] as the molecule, how does the Emax at 10 µM (L6-myotubes [1]) read?
A: < 25%

Q: And the Emax at 10 µM (L6-myotubes [2])?
A: 25 to 50%

Q: `O[C@@H](CNC[C@H]1CC[C@H](OCc2ccccc2)CC1)c1cccc(F)c1` [Example 29, (R)-2-((((1r,4R)-4-(Benzyloxy)cyclohexyl)methyl)amino)-1-(3-fluoro-phenyl)ethan-1-ol] was tested. Which Emax at 10 µM (L6-myotubes [1]) did it give?
A: < 25%

Q: And the Emax at 10 µM (L6-myotubes [2])?
A: 25 to 50%

Q: `O[C@@H](CNC[C@H]1CC[C@H](O)CC1)c1cccc(F)c1` [Example 30, (1R,4r)-4-((((R)-2-(3-Fluorophenyl)-2-hydroxyethyl)amino)methyl)-cyclohexan-1-ol] was tested. Which Emax at 10 µM (L6-myotubes [1]) did it give?
A: < 25%

Q: What about the Emax at 10 µM (L6-myotubes [2]) of the same molecule?
A: 25 to 50%

Q: Which Emax at 10 µM (L6-myotubes [1]) does the source give for `O[C@@H](CNC[C@H]1CC[C@H](OCc2ccccc2)CC1)c1cncc(F)c1` [Example 31, (R)-2-((((1r,4R)-4-(Benzyloxy)cyclohexyl)methyl)amino)-1-(5-fluoropyridin-3-yl)ethan-1-ol] here?
A: < 25%

Q: What about the Emax at 10 µM (L6-myotubes [2]) of the same molecule?
A: 25 to 50%

Q: Which results are given for `O[C@@H](CNC[C@H]1CC[C@H](O)CC1)c1cncc(F)c1` [Example 32, (1R,4r)-4-((((R)-2-(5-Fluoropyridin-3-yl)-2-hydroxyethyl)amino)-methyl)cyclohexan-1-ol]?
A: Emax at 10 µM (L6-myotubes [1]): < 25%; Emax at 10 µM (L6-myotubes [2]): < 25%

Q: Which results are given for `CC(C)(NC[C@H](O)c1cccc(F)c1)[C@H]1CC[C@@H](OCc2ccccc2)CC1` [Example 33, (R)-2-((2-((1s,4S)-4-(Benzyloxy)cyclohexyl)propan-2-yl)amino)-1-(3-fluorophenyl)ethan-1-ol]?
A: Emax at 10 µM (L6-myotubes [1]): < 25%; Biological example 1: glucose uptake, activity compared to that of isoproterenol (L6-myotubes [2]): + +

Q: Which Emax at 10 µM (L6-myotubes [1]) does the source give for `CC(C)(NC[C@H](O)c1cccc(F)c1)[C@H]1CC[C@@H](O)CC1` [Example 34, (1S,4s)-4-(2-(((R)-2-(3-Fluorophenyl)-2-hydroxyethyl)amino)propan-2-yl)cyclohexan-1-ol] here?
A: < 25%

Q: And the “Biological example 1: glucose uptake, activity compared to that of isoproterenol” value (L6-myotubes [2])?
A: + +

Q: How did the Emax at 10 µM (L6-myotubes [1]) turn out when `CC(C)(NC[C@H](O)c1cncc(F)c1)[C@H]1CC[C@@H](OCc2ccccc2)CC1` [Example 35, (R)-2-((2-((1s,4S)-4-(Benzyloxy)cyclohexyl)propan-2-yl)amino)-1-(5-fluoropyridin-3-yl)ethan-1-ol] was run?
A: < 25%

Q: And the “Biological example 1: glucose uptake, activity compared to that of isoproterenol” value (L6-myotubes [2])?
A: + +

Q: `CC(C)(NC[C@H](O)c1cncc(F)c1)[C@H]1CC[C@@H](O)CC1` [Example 36, (1S,4s)-4-(2-(((R)-2-(5-Fluoropyridin-3-yl)-2-hydroxyethyl)amino)propan-2-yl)cyclohexan-1-ol] was tested. Which Emax at 10 µM (L6-myotubes [1]) did it give?
A: < 25%

Q: And the Emax at 10 µM (L6-myotubes [2])?
A: 25 to 50%

Q: Which results are given for `CC(C)(NC[C@H](O)c1cccc(F)c1)[C@H]1CC[C@H](OCc2ccccc2)CC1` [Example 37, (R)-2-((2-((1r,4R)-4-(Benzyloxy)cyclohexyl)propan-2-yl)amino)-1-(3-fluoro-phenyl)ethan-1-ol]?
A: Emax at 10 µM (L6-myotubes [1]): < 25%; Biological example 1: glucose uptake, activity compared to that of isoproterenol (L6-myotubes [2]): + +

Q: Which Emax at 10 µM (L6-myotubes [1]) does the source give for `CC(C)(NC[C@H](O)c1cccc(F)c1)[C@H]1CC[C@H](O)CC1` [Example 38, (1R,4r)-4-(2-(((R)-2-(3-Fluorophenyl)-2-hydroxyethyl)amino)propan-2-yl)cyclohexan-1-ol] here?
A: < 25%

Q: And the “Biological example 1: glucose uptake, activity compared to that of isoproterenol” value (L6-myotubes [2])?
A: + +

Q: Which results are given for `CC(C)(NC[C@H](O)c1cncc(F)c1)[C@H]1CC[C@H](OCc2ccccc2)CC1` [Example 39, (R)-2-((2-((1r,4R)-4-(Benzyloxy)cyclohexyl)propan-2-yl)amino)-1-(5-fluoropyridin-3-yl)ethan-1-ol]?
A: Emax at 10 µM (L6-myotubes [1]): < 25%; Biological example 1: glucose uptake, activity compared to that of isoproterenol (L6-myotubes [2]): + +

Q: `CC(C)(NC[C@H](O)c1cncc(F)c1)[C@H]1CC[C@H](O)CC1` [Example 40, (1R,4r)-4-(2-(((R)-2-(5-Fluoropyridin-3-yl)-2-hydroxyethyl)amino)propan-2-yl)cyclohexan-1-ol] was tested. Which Emax at 10 µM (L6-myotubes [1]) did it give?
A: < 25%

Q: What about the “Biological example 1: glucose uptake, activity compared to that of isoproterenol” value (L6-myotubes [2]) of the same molecule?
A: + +

Q: What does the source list for `O[C@@H](CNCC[C@H]1CC[C@@H](OCc2ccccc2)CC1)c1cccc(F)c1` [Example 41, (R)-2-((2-((1s,4S)-4-(Benzyloxy)cyclohexyl)ethyl)amino)-1-(3-fluoro-phenyl)ethan-1-ol]?
A: Emax at 10 µM (L6-myotubes [1]): < 25%; Biological example 1: glucose uptake, activity compared to that of isoproterenol (L6-myotubes [2]): + +

Q: `O[C@@H](CNCC[C@H]1CC[C@@H](O)CC1)c1cccc(F)c1` [Example 42, (1S,4s)-4-(2-(((R)-2-(3-Fluorophenyl)-2-hydroxyethyl)amino)ethyl)-cyclohexan-1-ol] was tested. Which Emax at 10 µM (L6-myotubes [1]) did it give?
A: < 25%

Q: What about the “Biological example 1: glucose uptake, activity compared to that of isoproterenol” value (L6-myotubes [2]) of the same molecule?
A: + +

Q: For `O[C@@H](CNCC[C@H]1CC[C@@H](O)CC1)c1cncc(F)c1` [Example 44, (1S,4s)-4-(2-(((R)-2-(5-Fluoropyridin-3-yl)-2-hydroxyethyl)amino)-ethyl)cyclohexan-1-ol], which Emax at 10 µM (L6-myotubes [1]) is on record?
A: < 25%

Q: And the Emax at 10 µM (L6-myotubes [2])?
A: 25 to 50%

Q: `O[C@@H](CNCC[C@H]1CC[C@H](OCc2ccccc2)CC1)c1cccc(F)c1` [Example 45, (R)-2-((2-((1r,4R)-4-(Benzyloxy)cyclohexyl)ethyl)amino)-1-(3-fluoro-phenyl)ethan-1-ol] was tested. Which Emax at 10 µM (L6-myotubes [1]) did it give?
A: < 25%

Q: What about the Emax at 10 µM (L6-myotubes [2]) of the same molecule?
A: 25 to 50%

Q: Which Emax at 10 µM (L6-myotubes [1]) does the source give for `O[C@@H](CNCC[C@H]1CC[C@H](O)CC1)c1cccc(F)c1` [Example 46, (1R,4r)-4-(2-(((R)-2-(3-Fluorophenyl)-2-hydroxyethyl)amino)ethyl)-cyclohexan-1-ol] here?
A: < 25%

Q: What about the Emax at 10 µM (L6-myotubes [2]) of the same molecule?
A: 25 to 50%

Q: How did the Emax at 10 µM (L6-myotubes [1]) turn out when `O[C@@H](CNCC[C@H]1CC[C@H](OCc2ccccc2)CC1)c1cncc(F)c1` [Example 47, (R)-2-((2-((1r,4R)-4-(Benzyloxy)cyclohexyl)ethyl)amino)-1-(5-fluoropyridin-3-yl)ethan-1-ol] was run?
A: < 25%

Q: And the Emax at 10 µM (L6-myotubes [2])?
A: < 25%

Q: `O[C@@H](CNCC[C@H]1CC[C@H](O)CC1)c1cncc(F)c1` [Example 48, (1R,4r)-4-(2-(((R)-2-(5-Fluoropyridin-3-yl)-2-hydroxyethyl)amino)-ethyl)cyclohexan-1-ol] was tested. Which Emax at 10 µM (L6-myotubes [1]) did it give?
A: < 25%

Q: And the Emax at 10 µM (L6-myotubes [2])?
A: 25 to 50%
